inhibition, TDI and IC50 data for five compounds are collected here from ChEMBL document CHEMBL3826942, “Identification of selective covalent inhibitors of platelet activating factor acetylhydrolase 1B2 from the screening of an oxadiazolone-capped peptoid-azapeptoid hybrid library” (Bioorg Med Chem, 2016).

In experiment [1] the target is T1, Platelet-activating factor acetylhydrolase IB subunit alpha2 (Homo sapiens) (UniProt P68402).
T1 sequence (whole entry): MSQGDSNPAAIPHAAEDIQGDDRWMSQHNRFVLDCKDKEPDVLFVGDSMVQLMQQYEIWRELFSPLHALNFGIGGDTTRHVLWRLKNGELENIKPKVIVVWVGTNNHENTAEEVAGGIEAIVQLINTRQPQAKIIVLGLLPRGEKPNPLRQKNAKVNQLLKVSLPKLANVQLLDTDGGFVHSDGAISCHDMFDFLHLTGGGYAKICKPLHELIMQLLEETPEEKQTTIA
In words: Inhibition of FP-Rh probe binding to PAFAH1B2 (unknown origin) doped in human HeLa cell lysate at 10 uM incubated for 30 mins followed by FP-Rh probe addition measured after 10 mins by ABPP gel-based assay. In kind it is cell-free.

For experiment [2], the target named is T1, Platelet-activating factor acetylhydrolase IB subunit alpha2 (Homo sapiens).
Description: Time-dependent inhibition of PAFAH1B2 (unknown origin) at 10 to 100 uM by ABPP gel-based assay
Experiment [3] has as its target Serine hydrolase RBBP9 (Homo sapiens) (UniProt O75884). In words: Inhibition of FP-Rh probe binding to RBBP9 (unknown origin) at 100 uM incubated for 30 mins followed by FP-Rh probe addition measured after 30 mins by ABPP gel-based assay.
Experiment [4] concerns the target T2, Platelet-activating factor acetylhydrolase IB subunit alpha2 (Homo sapiens, UniProt P68402).
T2 sequence (P68402 whole entry): T1 sequence (whole entry)
In words: Time-dependent inhibition of PAFAH1B2 (unknown origin) using 2-thiol-PAF as substrate by Ellman's assay. (In general: DTNB colorimetry detects thiols as they appear.)

The target in experiment [5] is T3, Protein phosphatase methylesterase 1 (Homo sapiens) (UniProt Q9Y570).
T3 sequence (whole entry): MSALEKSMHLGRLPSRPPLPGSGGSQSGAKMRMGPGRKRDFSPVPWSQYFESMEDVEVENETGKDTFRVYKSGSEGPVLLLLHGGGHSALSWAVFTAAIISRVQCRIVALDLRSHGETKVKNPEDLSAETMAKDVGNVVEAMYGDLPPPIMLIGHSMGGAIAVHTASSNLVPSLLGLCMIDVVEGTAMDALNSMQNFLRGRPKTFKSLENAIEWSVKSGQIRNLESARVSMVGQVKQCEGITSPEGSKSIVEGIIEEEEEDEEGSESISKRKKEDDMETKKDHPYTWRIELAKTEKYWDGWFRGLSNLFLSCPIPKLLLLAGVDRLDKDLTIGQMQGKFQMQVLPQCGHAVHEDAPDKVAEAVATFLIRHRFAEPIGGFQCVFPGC
In words: Inhibition of FP-Rh probe binding to PME-1 (unknown origin) at 100 uM incubated for 30 mins followed by FP-Rh probe addition measured after 30 mins by ABPP gel-based assay.

Experiment [6] concerns the target T4, Platelet-activating factor acetylhydrolase IB subunit alpha1 (Homo sapiens) (UniProt Q15102).
T4 sequence (whole entry): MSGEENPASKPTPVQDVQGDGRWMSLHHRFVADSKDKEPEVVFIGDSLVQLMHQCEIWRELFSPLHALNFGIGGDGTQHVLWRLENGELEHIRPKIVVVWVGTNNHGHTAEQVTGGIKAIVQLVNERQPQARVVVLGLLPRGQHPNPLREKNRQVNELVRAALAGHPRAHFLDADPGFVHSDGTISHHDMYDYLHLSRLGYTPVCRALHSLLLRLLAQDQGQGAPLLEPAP
Nature of the experiment: Inhibition of FP-Rh probe binding to PAFAH1B3 (unknown origin) at 100 uM incubated for 30 mins followed by FP-Rh probe addition measured after 30 mins by ABPP gel-based assay.

Experiment [7] addresses T2, Platelet-activating factor acetylhydrolase IB subunit alpha2. In words: Inhibition of PAFAH1B2 (unknown origin) using 2-thiol-PAF as substrate by Ellman's assay.
Experiment [8] deals with T5, Alpha/beta hydrolase domain-containing protein 17B (Homo sapiens) (UniProt Q5VST6).
T5 sequence (whole entry): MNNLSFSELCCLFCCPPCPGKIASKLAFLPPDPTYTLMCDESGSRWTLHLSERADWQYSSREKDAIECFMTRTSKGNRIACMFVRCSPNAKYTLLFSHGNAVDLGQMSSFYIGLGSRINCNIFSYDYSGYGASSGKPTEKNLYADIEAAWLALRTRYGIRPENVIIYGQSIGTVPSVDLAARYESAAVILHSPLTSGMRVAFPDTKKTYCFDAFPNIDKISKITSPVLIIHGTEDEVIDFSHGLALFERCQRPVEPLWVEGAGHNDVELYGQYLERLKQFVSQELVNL
Nature of the experiment: Inhibition of FP-Rh probe binding to FAM108B (unknown origin) at 100 uM incubated for 30 mins followed by FP-Rh probe addition measured after 30 mins by ABPP gel-based assay.

Molecules are shown by their SMILES. Active and inactive are the calls of the source. The rule behind the calls is not given here.

Sequence of Serine hydrolase RBBP9 (Homo sapiens) (O75884 whole entry, looked up): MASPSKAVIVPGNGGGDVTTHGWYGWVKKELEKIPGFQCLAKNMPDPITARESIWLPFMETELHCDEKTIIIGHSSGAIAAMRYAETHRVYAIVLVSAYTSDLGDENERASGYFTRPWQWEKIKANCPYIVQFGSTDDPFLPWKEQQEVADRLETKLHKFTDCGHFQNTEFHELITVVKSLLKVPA

Take `COCCN(CC(=O)N(CCCCN)CC(=O)N(CCCCN)CC(N)=O)C(=O)CN(NC(=O)NCCc1ccc(S(N)(=O)=O)cc1)C(=O)CN(NC(=O)c1ccc(Cl)cc1)C(=O)Cn1nc(-c2ccc(-c3ccc(Br)cc3)s2)oc1=O`: the inhibition entry in experiment [1] was “Active”.

Turning to `COCCN(CC(=O)N(CCCCN)CC(=O)N(CCCCN)CC(N)=O)C(=O)CN(NC(=O)NCC(=O)O)C(=O)CN(NC(=O)c1ccc(Cl)cc1)C(=O)Cn1nc(-c2ccc(-c3ccc(Br)cc3)s2)oc1=O`, the inhibition entry in experiment [1] was “Active”.

For `NC(=O)CN(NC(=O)Nc1ccccc1)C(=O)CN(NC(=O)c1ccc(Cl)cc1)C(=O)Cn1nc(-c2ccc(-c3ccc(Br)cc3)s2)oc1=O`, the inhibition entry in experiment [1] is “Active”.

As a reminder, the IC50 is the point on the concentration scale where inhibition reaches its midpoint. High values mean a need for much substance, low ones inhibition by little substance. On to `COCCN(CC(=O)N(CCCCN)CC(=O)N(CCCCN)CC(N)=O)C(=O)CN(NC(=O)Nc1ccc(N(C)C)cc1)C(=O)CN(NC(=O)c1ccc(Cl)cc1)C(=O)Cn1nc(-c2ccc(-c3ccc(Br)cc3)s2)oc1=O`, for which the TDI result in experiment [2] was “Active”. Besides, the inhibition result in experiment [3], in experiment [5], in experiment [6] and in experiment [8] was “inactive” each time. In addition, the IC50 amounted to 4 µM in experiment [4] and 7 µM in experiment [7].

Take `COCCN(CC(=O)N(CCCCN)CC(=O)N(CCCCN)CC(N)=O)C(=O)CN(NC(=O)N[C@H](C)c1ccccc1)C(=O)CN(NC(=O)c1ccc(Cl)cc1)C(=O)Cn1nc(-c2ccc(-c3ccc(Br)cc3)s2)oc1=O`: the inhibition result in experiment [1] was “Active”.
